Reference: patent publication US20260070945A1, “MACROCYCLIC IMMUNOMODULATORS” (Bristol-Myers Squibb Company, priority 2022, published 2026)
*1 amine or outer side, *2 acyl side, *3 side chain or, on linkers, in order; H or OH if unused. Where a SMILES comes first, the peptide text is derived from it. Bridges are numbered along the chain shown (N, C = ends). [ ]: non-standard residue; d: D form. The star is where a group is joined. ξ: configuration not given here. Phe(3-CF3) = N[C@@H](Cc1cccc(C(F)(F)F)c1)C(=O)O; Tyr(3,5-F2) = N[C@@H](Cc1cc(F)c(O)c(F)c1)C(=O)O; Phe(4-COOH) = N[C@@H](Cc1ccc(C(=O)O)cc1)C(=O)O; Tyr(3-Cl) = N[C@@H](Cc1ccc(O)c(Cl)c1)C(=O)O; Bip = N[C@@H](Cc1ccc(-c2ccccc2)cc1)C(=O)O; Phe(3-Me) = Cc1cccc(C[C@H](N)C(=O)O)c1; γGlu = O=C(O)[C@H](CCC(=O)[*:2])N[*:1]; NH(CH2)12COOH = O=C(O)CCCCCCCCCCCCN*; Val(3-OH) = CC(C)(O)[C@H](N)C(=O)O; 4Pal = N[C@@H](Cc1ccncc1)C(=O)O; Cha = N[C@@H](CC1CCCCC1)C(=O)O; Cit = NC(=O)NCCC[C@H](N)C(=O)O; Thr(3ξ) = CC(O)[C@H](N)C(=O)O; 12Ado = NCCCCCCCCCCCC(=O)O; 3Abz = Nc1cccc(C(=O)O)c1; Carboxymethyl = O=C(O)C*; NMeA = CN[C@@H](C)C(=O)O; Orn = NCCC[C@H](N)C(=O)O; Aun = NCCCCCCCCCCC(=O)O; Dab = NCC[C@H](N)C(=O)O; AEEA = NCCOCCOCC(=O)O

Target: T1, PD-1/PD-L1 interaction (PE-labeled human PD-L1-Ig binding to Jurkat cell line over-expressing human PD-1) (Homo sapiens, UniProt Q15116)
T1 construct: expressed in transfected cells; host or cells: Jurkat
Experiment: Jurkat-PD-1 Cell Binding High-Content Screening Assay (CBA)
Settings: Jurkat-hPD-1 cells, PE-labeled PD-L1-Ig 20 nM final; read-out: Jurkat HPD1 PDL1 IC50
Procedure, shortened: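 Cells 8×10^3/well, DMEM + 10% FCS; cpd 2 h, 37 °C; PE–PD-L1-Ig 20 nM final, 1 h; PFA fix + Hoechst 33342, 3× dPBS wash; high-content imager.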

T1 sequence (Q15116 25-288): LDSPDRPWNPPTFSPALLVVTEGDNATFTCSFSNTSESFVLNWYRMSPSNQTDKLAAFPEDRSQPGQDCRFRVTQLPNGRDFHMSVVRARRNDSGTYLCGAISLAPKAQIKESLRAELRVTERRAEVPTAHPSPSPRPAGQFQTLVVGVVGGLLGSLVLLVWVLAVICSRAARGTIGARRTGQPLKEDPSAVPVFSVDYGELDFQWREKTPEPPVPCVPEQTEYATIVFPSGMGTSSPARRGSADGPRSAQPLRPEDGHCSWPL

| Compound | IC50 |
| --- | --- |
| Cc1cccc(C[C@@H]2NC(=O)[C@H](CC(=O)O)NC(=O)[C@H](Cc3ccc(C(=O)O)cc3)NC(=O)[C@H](CCN)NC(=O)CSC[C@@H](C(=O)N[C@@H](CCN)C(=O)NCCCCCCCCCCC(=O)O)NC(=O)[C@H](CO)NC(=O)[C@H](C(C)(C)O)NC(=O)[C@H](CC3CCCCC3)NC(=O)[C@H](CCN)NC(=O)[C@@H](CC(C)C)NC(=O)[C@H](C)N(C)C(=O)[C@H](Cc3ccc(OCC(=O)O)cc3)NC(=O)[C@H](Cc3ccc(-c4ccccc4)cc3)NC(=O)[C@H](Cc3ccc(O)c(Cl)c3)NC2=O)c1 [Example 1293] ({CH2CO}-[Dab][Phe(4-COOH)]D[Phe(3-Me)][Tyr(3-Cl)][Bip]Y(Carboxymethyl)[NMeA][dL][Dab][Cha][Val(3-OH)]SC[Dab][Aun]-OH; thioether N-14) | 35.8 nM |
| CC(C)C[C@H]1NC(=O)[C@H](C)N(C)C(=O)[C@H](Cc2ccc(OCC(=O)O)cc2)NC(=O)[C@H](Cc2ccc(-c3ccccc3)cc2)NC(=O)[C@H](Cc2ccc(OCC(=O)O)cc2)NC(=O)[C@H](Cc2c[nH]c3ccccc23)NC(=O)[C@H](CC(=O)O)NC(=O)[C@H](Cc2ccc(OCC(=O)O)cc2)NC(=O)[C@H]([C@@H](C)O)NC(=O)CSC[C@@H](C(=O)N[C@@H](CCCN)C(=O)NCCOCCOCC(=O)NCCCCCCCCCCC(=O)O)NC(=O)[C@H](CCC(=O)O)NC(=O)[C@H](C(C)C)NC(=O)[C@H](CC2CCCCC2)NC(=O)[C@H](CC(N)=O)NC1=O [Example 1388] ({CH2CO}-TY(Carboxymethyl)DWY(Carboxymethyl)[Bip]Y(Carboxymethyl)[NMeA][dL]N[Cha]VEC[Orn][AEEA][Aun]-OH; thioether N-14) | 660 nM |
| CC(C)C[C@@H]1NC(=O)[C@H](Cc2c[nH]c3ccccc23)NC(=O)[C@H](CC(=O)O)NC(=O)[C@H](Cc2ccncc2)NC(=O)[C@H](Cc2ccc(OCC(=O)O)cc2)NC(=O)CSC[C@@H](C(=O)Nc2cccc(C(=O)NCCCCCCCCCCC(=O)O)c2)NC(=O)[C@H](CCN)NC(=O)[C@H](C(C)C)NC(=O)[C@H](CC2CCCCC2)NC(=O)[C@H](CCN)NC(=O)[C@@H](CC(C)C)NC(=O)[C@H](C)N(C)C(=O)[C@H](C(C)C)NC(=O)[C@H](Cc2ccc(-c3ccccc3)cc2)NC1=O [Example 1217] ({CH2CO}-Y(Carboxymethyl)[4Pal]DWL[Bip]V[NMeA][dL][Dab][Cha]V[Dab]C[3Abz][Aun]-OH; thioether N-14) | 238 nM |
| Cc1cccc(C[C@@H]2NC(=O)[C@H](CC(=O)O)NC(=O)[C@H](Cc3ccc(C(=O)O)cc3)NC(=O)[C@H](CCN)NC(=O)CSC[C@@H](C(=O)N[C@@H](CCN)C(=O)NCCCCCCCCCCC(=O)O)NC(=O)[C@H](CO)NC(=O)[C@H](C(C)(C)O)NC(=O)[C@H](CC3CCCCC3)NC(=O)[C@H](CCN)NC(=O)[C@@H](CC(C)C)NC(=O)[C@H](C)N(C)C(=O)[C@H](Cc3ccc(OCC(=O)O)cc3)NC(=O)[C@H](Cc3ccc(-c4ccccc4)cc3)NC(=O)[C@H](Cc3cc(F)c(O)c(F)c3)NC2=O)c1 [Example 1290] ({CH2CO}-[Dab][Phe(4-COOH)]D[Phe(3-Me)][Tyr(3,5-F2)][Bip]Y(Carboxymethyl)[NMeA][dL][Dab][Cha][Val(3-OH)]SC[Dab][Aun]-OH; thioether N-14) | 20.1 nM |
| COC[C@@H]1NC(=O)CSC[C@@H](C(=O)N[C@@H](CCN)C(=O)NCCOCCOCC(=O)N[C@@H](CCC(=O)NCCOCCOCC(=O)NCCCCCCCCCCCCC(=O)O)C(=O)O)NC(=O)[C@H](CO)NC(=O)[C@H](C(C)(C)O)NC(=O)[C@H](CC2CCCCC2)NC(=O)[C@H](CCN)NC(=O)[C@@H](CC(C)C)NC(=O)[C@H](C)N(C)C(=O)[C@H](CCCNC(N)=O)NC(=O)[C@H](Cc2ccc(-c3ccccc3)cc2)NC(=O)[C@H](Cc2ccc(C(=O)O)cc2)NC(=O)[C@H](Cc2cccc(C(F)(F)F)c2)NC(=O)[C@H](CC(=O)O)NC(=O)[C@H](Cc2ccc(OCC(=O)O)cc2)NC1=O [Example 1181] ({CH2CO}-S(Me)Y(Carboxymethyl)D[Phe(3-CF3)][Phe(4-COOH)][Bip][Cit][NMeA][dL][Dab][Cha][Val(3-OH)]SC[Dab][AEEA][γGlu][AEEA]-{NH(CH2)12COOH}; thioether N-14) | 48.5 nM |

Next, values leading:

| IC50 | Compound |
| --- | --- |
| 10.1 nM | CC(=O)NCCCC[C@@H]1NC(=O)[C@H](C(C)C)NC(=O)[C@H](CC2CCCCC2)NC(=O)[C@H](CCN)NC(=O)[C@@H](CC(C)C)NC(=O)[C@H](C)N(C)C(=O)[C@H](CCC(N)=O)NC(=O)[C@H](Cc2ccc(-c3ccccc3)cc2)NC(=O)[C@H](C(C)C)NC(=O)[C@H](Cc2cccc(C)c2)NC(=O)[C@H](CC(=O)O)NC(=O)[C@H](Cc2ccc(OCC(=O)O)cc2)NC(=O)[C@H](Cc2ccc(OCC(=O)O)cc2)NC(=O)CSC[C@@H](C(=O)N[C@@H](CCN)C(=O)NCCCCCCCCCCC(=O)O)NC1=O [Example 2220] ({CH2CO}-Y(Carboxymethyl)Y(Carboxymethyl)D[Phe(3-Me)]V[Bip]Q[NMeA][dL][Dab][Cha]VK(Ac)C[Dab][Aun]-OH; thioether N-14) |
| 9.3 nM | CC(C)C[C@@H]1NC(=O)[C@H](Cc2c[nH]c3ccccc23)NC(=O)[C@H](CC(=O)O)NC(=O)[C@H](Cc2ccc(C(=O)O)cc2)NC(=O)[C@H](Cc2ccc(OCC(=O)O)cc2)NC(=O)CSC[C@@H](C(=O)N[C@@H](CCN)C(=O)NCCOCCOCC(=O)NCCCCCCCCCCC(=O)O)NC(=O)[C@H](CCC(=O)O)NC(=O)[C@H](C(C)(C)O)NC(=O)[C@H](CC2CCCCC2)NC(=O)[C@H](CCN)NC(=O)[C@@H](CC(C)C)NC(=O)[C@H](C)N(C)C(=O)[C@H](C(C)C)NC(=O)[C@H](Cc2ccc(-c3ccccc3)cc2)NC1=O [Example 1123] ({CH2CO}-Y(Carboxymethyl)[Phe(4-COOH)]DWL[Bip]V[NMeA][dL][Dab][Cha][Val(3-OH)]EC[Dab][AEEA][Aun]-OH; thioether N-14) |
| 5.2 nM | CC(C)C[C@@H]1NC(=O)[C@H](Cc2c[nH]c3ccccc23)NC(=O)[C@H](CC(=O)O)NC(=O)[C@H](Cc2ccncc2)NC(=O)[C@H](Cc2ccc(OCC(=O)O)cc2)NC(=O)CSC[C@@H](C(=O)N[C@@H](CCN)C(=O)NCCOCCOCC(=O)NCCCCCCCCCCC(=O)O)NC(=O)[C@H](CO)NC(=O)[C@H](C(C)C)NC(=O)[C@H](CC2CCCCC2)NC(=O)[C@H](CCN)NC(=O)[C@@H](CC(C)C)NC(=O)[C@H](C)N(C)C(=O)[C@H](C(C)C)NC(=O)[C@H](Cc2ccc(-c3ccccc3)cc2)NC1=O [Example 1089] ({CH2CO}-Y(Carboxymethyl)[4Pal]DWL[Bip]V[NMeA][dL][Dab][Cha]VSC[Dab][AEEA][Aun]-OH; thioether N-14) |
| 4.8 nM | CC(=O)NCCCC[C@@H]1NC(=O)[C@H](Cc2ccc(-c3ccccc3)cc2)NC(=O)[C@H](CC(C)C)NC(=O)[C@H](Cc2c[nH]c3ccccc23)NC(=O)[C@H](CC(=O)O)NC(=O)[C@H](Cc2ccc(C(=O)O)cc2)NC(=O)[C@H](Cc2ccc(OCC(=O)O)cc2)NC(=O)CSC[C@@H](C(=O)NCCOCCOCC(=O)NCCCCCCCCCCC(=O)O)NC(=O)[C@H](CO)NC(=O)[C@H](C(C)C)NC(=O)[C@H](CC2CCCCC2)NC(=O)[C@H](CCN)NC(=O)[C@@H](CC(C)C)NC(=O)[C@H](C)N(C)C1=O [Example 2229] ({CH2CO}-Y(Carboxymethyl)[Phe(4-COOH)]DWL[Bip]K(Ac)[NMeA][dL][Dab][Cha]VSC[AEEA][Aun]-OH; thioether N-14) |

Same assay, conditions: PE-labeled PD-L1-Ig 20 nM final, Jurkat-hPD-1 cells; read-out: Jurkat HPD1 PDL1 IC50

| IC50 | Compound |
| --- | --- |
| 13.1 nM | Cc1cccc(C[C@@H]2NC(=O)[C@H](CC(=O)O)NC(=O)[C@H](Cc3ccc(C(=O)O)cc3)NC(=O)[C@H](C(C)O)NC(=O)CSC[C@@H](C(=O)N[C@@H](CCN)C(=O)NCCOCCOCC(=O)NCCCCCCCCCCC(=O)O)NC(=O)[C@H](Cc3cnc[nH]3)NC(=O)[C@H](C(C)(C)O)NC(=O)[C@H](CC3CCCCC3)NC(=O)[C@H](CCN)NC(=O)[C@@H](CC(C)C)NC(=O)[C@H](C)N(C)C(=O)[C@H](Cc3ccc(C(=O)O)cc3)NC(=O)[C@H](Cc3ccc(-c4ccccc4)cc3)NC(=O)[C@H](Cc3ccc(C(=O)O)cc3)NC2=O)c1 (stereo partly drawn) [Example 2545] ({CH2CO}-[Thr(3ξ)][Phe(4-COOH)]D[Phe(3-Me)][Phe(4-COOH)][Bip][Phe(4-COOH)][NMeA][dL][Dab][Cha][Val(3-OH)]HC[Dab][AEEA][Aun]-OH; thioether N-14) |
| 2.3 nM | Cc1cccc(C[C@@H]2NC(=O)[C@H](CC(=O)O)NC(=O)[C@H](Cc3ccc(OCC(=O)O)cc3)NC(=O)[C@H]([C@@H](C)O)NC(=O)CSC[C@@H](C(=O)N[C@@H](CCN)C(=O)NCCOCCOCC(=O)NCCCCCCCCCCCC(=O)O)NC(=O)CNC(=O)[C@H](C(C)C)NC(=O)[C@H](CC3CCCCC3)NC(=O)[C@H](CCN)NC(=O)[C@@H](CC(C)C)NC(=O)[C@H](C)N(C)C(=O)[C@H](Cc3ccc(OCC(=O)O)cc3)NC(=O)[C@H](Cc3ccc(-c4ccccc4)cc3)NC(=O)[C@H](Cc3ccc(OCC(=O)O)cc3)NC2=O)c1 [Example 2664] ({CH2CO}-TY(Carboxymethyl)D[Phe(3-Me)]Y(Carboxymethyl)[Bip]Y(Carboxymethyl)[NMeA][dL][Dab][Cha]VGC[Dab][AEEA][12Ado]-OH; thioether N-14) |
| 20.1 nM | CC(=O)NCCCC[C@@H]1NC(=O)[C@H](C(C)(C)O)NC(=O)[C@H](CC2CCCCC2)NC(=O)[C@H](CCN)NC(=O)[C@@H](CC(C)C)NC(=O)[C@H](C)N(C)C(=O)[C@H](CCC(N)=O)NC(=O)[C@H](Cc2ccc(-c3ccccc3)cc2)NC(=O)[C@H](Cc2ccc(C(=O)O)cc2)NC(=O)[C@H](Cc2cccc(C(F)(F)F)c2)NC(=O)[C@H](CC(=O)O)NC(=O)[C@H](Cc2ccc(OCC(=O)O)cc2)NC(=O)[C@H](Cc2ccc(OCC(=O)O)cc2)NC(=O)CSC[C@@H](C(=O)N[C@@H](CCN)C(=O)NCCOCCOCC(=O)NCCCCCCCCCCCCC(=O)O)NC1=O [Example 2617] ({CH2CO}-Y(Carboxymethyl)Y(Carboxymethyl)D[Phe(3-CF3)][Phe(4-COOH)][Bip]Q[NMeA][dL][Dab][Cha][Val(3-OH)]K(Ac)C[Dab][AEEA]-{NH(CH2)12COOH}; thioether N-14) |
